Test results taken from ChEMBL document CHEMBL1142863, “A potent, covalent inhibitor of orotidine 5'-monophosphate decarboxylase with antimalarial activity” (J Med Chem, 2007).
Values after ≈ are worked out from the molar mass of the structure shown. Active and inactive are the calls of the source. The calls are words filed in the database; no cut-off is given here.

What was measured:
Plasmodium falciparum = assay: Antiparasitic activity against chloroquine-resistant Plasmodium falciparum ItG after 48 hrs by SYBR-Green assay; format: functional, organism-based
[1] = Dissociation constant, pKa of the compound; format: physicochemical
[2] = Solubility in distilled water; format: physicochemical
[3] = biological target: Orotidine 5'-phosphate decarboxylase (Methanobacterium thermoautotrophicum) (UniProt O26232); assay: Inhibition of Methanobacterium thermoautotrophicum ODCase at 50 uM after 8 hrs; set-up: scale not given: the % may be the effect or the level left; conditions: Methanothermobacter thermautotrophicus
Orotidine 5'-phosphate decarboxylase (Methanobacterium thermoautotrophicum), sequence (O26232 whole entry, looked up): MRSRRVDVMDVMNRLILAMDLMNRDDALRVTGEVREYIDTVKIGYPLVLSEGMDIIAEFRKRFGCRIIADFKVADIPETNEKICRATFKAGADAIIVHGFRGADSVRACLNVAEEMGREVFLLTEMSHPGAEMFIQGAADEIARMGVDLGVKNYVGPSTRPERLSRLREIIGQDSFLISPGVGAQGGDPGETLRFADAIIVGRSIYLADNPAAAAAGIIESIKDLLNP

[4] = biological target: Orotidine 5'-phosphate decarboxylase (Methanobacterium thermoautotrophicum) (UniProt O26232); assay: Inhibition of Methanobacterium thermoautotrophicum ODCase at 250 uM in less than 30 mins; conditions: Methanothermobacter thermautotrophicus
[5] = biological target: T1, Orotidine phosphate decarboxylase (Plasmodium falciparum) (UniProt Q8T6J6); assay: Inhibition of Plasmodium falciparum ODCase
T1 sequence (whole entry): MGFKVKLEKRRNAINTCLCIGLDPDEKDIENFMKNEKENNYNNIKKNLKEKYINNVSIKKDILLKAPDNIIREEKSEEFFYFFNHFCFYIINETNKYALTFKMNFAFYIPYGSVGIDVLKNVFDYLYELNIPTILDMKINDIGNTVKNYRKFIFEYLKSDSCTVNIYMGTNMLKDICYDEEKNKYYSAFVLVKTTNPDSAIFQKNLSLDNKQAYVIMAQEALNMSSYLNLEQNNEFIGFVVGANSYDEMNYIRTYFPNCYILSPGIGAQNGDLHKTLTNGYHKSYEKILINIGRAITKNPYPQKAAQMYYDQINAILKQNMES

| Compound | IC50 (Plasmodium falciparum) [µM] | pKa [1] | solubility [2] [µg/mL] | Activity [3] [%] | Activity [4] | Activity [5] |
| --- | --- | --- | --- | --- | --- | --- |
| O=c1cc(I)n([C@@H]2O[C@H](CO)[C@@H](O)[C@H]2O)c(=O)[nH]1 | 4.4 | 8.42 | 4320 (≈ 11.7 mM) | – | – | – |
| O=c1cc(I)n([C@@H]2O[C@H](COP(=O)(O)O)[C@@H](O)[C@H]2O)c(=O)[nH]1 | – | – | – | > 60 | Active | Active |
